{
  "source": "paper PMC8658016",
  "about": "“Identification of New Compounds with Anticonvulsant and Antinociceptive Properties in a Group of 3-substituted (2,5-dioxo-pyrrolidin-1-yl)(phenyl)-Acetamides” (International Journal of Molecular Sciences, 2021)",
  "tested_on": "fast voltage-gated sodium currents in rat prefrontal cortex pyramidal neurons",
  "experiment": "Patch-clamp, fast voltage-gated sodium currents",
  "format": "cell-based",
  "from_the_text": "Consequently, we determined the influence of compound 14 on the fast activating and fast inactivating voltage-gated sodium currents in rat prefrontal cortex pyramidal neurons using the patch-clamp technique. Maximal currents were evoked by rectangular voltage steps to 0 mV from a physiological holding potential of -65 mV. After recording a stable control, compound 14 was applied to the whole bath for three minutes. […] Therefore, it was very likely that the potent inhibition of sodium currents by compound 14 similar to compound II was one of the mechanisms providing a similar level of anticonvulsant activity. Moreover, the influence of several additional concentrations of compound 14 on voltage-gated sodium currents were tested to confirm the dose–response relationship. In sum, the following concentrations were applied; 0.01 µM, 0.1 µM, 1 µM, 10 µM, and the results obtained were as follows: 0.95 ± 0.05 (p > 0.05, n = 5), 0.84 ± 0.03 (p < 0.05, n = 5), 0.82 ± 0.05 (p < 0.01, n = 5), and 0.77 ± 0.02 (p < 0.01, n = 5), respectively (Figure 9D, currents were normalized to control currents). It is worthy of note that the significant inhibitory effect was observed starting from the concentration of 0.1 µM, whereas no activity was detected at 0.01 µM. Furthermore, a clear dose–response relationship was visible. All the aforementioned results certainly supporting the inhibition of fast voltage-gated sodium currents, seemed to be crucial for the antiseizure activity of compound 14. The methodology of slice preparation, slice preincubation, and patch-clamp technique was the same as in our previous study. In this study, however, we used different recording solutions. The composition of pipette solution was (in mM) CsF (110), NaCl (7), EGTA (3), HEPES-Cl (10), MgCl2 (2), and Na2ATP (4) at pH 7,4. The composition of extracellular solution was (in mM) NaCl (30), choline chloride (90), TEA-Cl (30), CaCl2 (2), MgCl2 (2), glucose (15), HEPES (10), LaCl3 (0.001), and CdCl2 (0.4) at pH 7.4. Compound 14 was tested at concentration of 1 µM.  Figure 9 The influence of compound 14 on fast, voltage-gated sodium current. (A) The influence of tested compound on sodium current is shown on an example neuron. Current traces were evoked once every ten seconds by a rectangular voltage step. […] (B) Example sodium current recordings in control (black trace), after application of compound 14 (1 µM) (blue trace) and after wash-out (red trace). (C) Averaged normalized maximal current amplitudes in control, in the presence of compound 14 (1 µM) and after wash-out. (D) Averaged normalized maximal current amplitudes in control and in the presence of different concentrations of compound 14 (0.01 µM, 0.1 µM, 1 µM, and 10 µM). Statistical significance was analyzed by Graph Pad Prism 8.0.1 software using Tukey post hoc test (C) and Students’ t-test (D). Statistical significance-compared control: * p < 0.05, ** p < 0.01.",
  "data": [
    {"smiles": "CN(C)C1CC(=O)N(C(C(=O)N2CCN(c3cccc(C(F)(F)F)c3)CC2)c2ccccc2)C1=O.Cl", "note": "(centres unmarked) [Compound 14, 3-(Dimethylamino)-1-(2-oxo-1-phenyl-2-(4-(3-(trifluoromethyl)phenyl)-piperazin-1-yl)ethyl)pyrrolidine-2,5-dione hydrochloride]", "values": [
      {"measurement": "maximal sodium current amplitude normalized to control (1.0)", "setting": "0.01 µM, p > 0.05, n = 5", "result": "0.95 ± 0.05"},
      {"measurement": "maximal sodium current amplitude normalized to control (1.0)", "setting": "0.1 µM, p < 0.05, n = 5", "result": "0.84 ± 0.03"},
      {"measurement": "maximal sodium current amplitude normalized to control (1.0)", "setting": "1 µM, p < 0.01, n = 5", "result": "0.82 ± 0.05"},
      {"measurement": "maximal sodium current amplitude normalized to control (1.0)", "setting": "10 µM, p < 0.01, n = 5", "result": "0.77 ± 0.02"},
      {"measurement": "maximal sodium current amplitude normalized to control, after drug wash-out", "setting": "after application of 1 µM", "result": "0.92 ± 0.02"}
    ]}
  ]
}
